Numbers after ± are expanded uncertainties.
Test: mn = molality of the nth substance listed, in mol/kg
Conditions: 101 kPa, Liquid; for mass density: Vibrating tube method; for viscosity: Capillary tube (Ostwald / Ubbelohde) method

CNC(=O)NC [1,3-dimethylurea] + O
Conditions | mass density, 283.15 K [kg/m3] | mass density, 288.15 K [kg/m3] | mass density, 293.15 K [kg/m3] | mass density, 298.15 K [kg/m3] | viscosity, 288.15 K [mPa·s] | viscosity, 293.15 K [mPa·s] | viscosity, 298.15 K [mPa·s]
m1 = 0.0033 | 999.7 ± 0.1 | 999.1 ± 0.1 | 998.2 ± 0.1 | 997.1 ± 0.1 | 1.173 ± 0.01 | 1.035 ± 0.0099 | 0.9187 ± 0.0096
m1 = 0.0331 | 1000 ± 0.1 | 999.4 ± 0.1 | 998.5 ± 0.1 | 997.3 ± 0.1 | 1.187 ± 0.01 | 1.045 ± 0.0099 | 0.929 ± 0.0096
m1 = 0.0995 | 1000.6 ± 0.1 | 1000 ± 0.1 | 999 ± 0.1 | 997.9 ± 0.1 | 1.212 ± 0.01 | 1.066 ± 0.01 | 0.9456 ± 0.0096
m1 = 0.1669 | 1001.2 ± 0.1 | 1000.5 ± 0.1 | 999.6 ± 0.1 | 998.4 ± 0.1 | 1.232 ± 0.01 | 1.081 ± 0.01 | 0.9603 ± 0.0097
m1 = 0.2354 | 1001.8 ± 0.1 | 1001.1 ± 0.1 | 1000.2 ± 0.1 | 999 ± 0.1 | 1.243 ± 0.01 | 1.094 ± 0.01 | 0.9716 ± 0.0097
m1 = 0.3039 | 1002.4 ± 0.1 | 1001.7 ± 0.1 | 1000.8 ± 0.1 | 999.5 ± 0.1 | 1.255 ± 0.011 | 1.104 ± 0.01 | 0.9789 ± 0.0097
m1 = 0.3387 | 1002.7 ± 0.1 | 1002 ± 0.1 | 1001 ± 0.1 | 999.8 ± 0.1 | 1.27 ± 0.011 | 1.117 ± 0.01 | 0.9944 ± 0.0098
m1 = 0.4997 | 1004.2 ± 0.1 | 1003.4 ± 0.1 | 1002.4 ± 0.1 | 1001.1 ± 0.1 | – | – | –
m1 = 0.7491 | 1006.5 ± 0.1 | 1005.6 ± 0.1 | 1004.5 ± 0.1 | 1003.2 ± 0.1 | 1.402 ± 0.011 | 1.228 ± 0.01 | 1.084 ± 0.01
m1 = 1.001 | 1008.7 ± 0.1 | 1007.8 ± 0.1 | 1006.6 ± 0.1 | 1005.2 ± 0.1 | – | – | –
m1 = 1.08 | 1009.4 ± 0.1 | 1008.5 ± 0.1 | 1007.3 ± 0.1 | 1005.8 ± 0.1 | – | – | –
m1 = 1.5 | 1013.2 ± 0.1 | 1012.1 ± 0.1 | 1010.7 ± 0.1 | 1009.2 ± 0.1 | – | – | –
m1 = 1.923 | 1016.8 ± 0.1 | 1015.5 ± 0.1 | 1014 ± 0.1 | 1012.3 ± 0.1 | 1.831 ± 0.013 | 1.581 ± 0.012 | 1.379 ± 0.011
m1 = 2.885 | 1024.6 ± 0.1 | 1023 ± 0.1 | 1021.2 ± 0.1 | 1019.2 ± 0.1 | 2.225 ± 0.014 | 1.902 ± 0.013 | 1.649 ± 0.012
m1 = 4.005 | 1032.6 ± 0.1 | 1030.7 ± 0.1 | 1028.5 ± 0.1 | 1026.3 ± 0.1 | 2.746 ± 0.017 | 2.325 ± 0.015 | 1.998 ± 0.014
m1 = 5.304 | 1040.7 ± 0.1 | 1038.4 ± 0.1 | 1035.9 ± 0.1 | 1033.3 ± 0.1 | 3.342 ± 0.02 | 2.805 ± 0.017 | 2.382 ± 0.015
m1 = 6.862 | 1048.7 ± 0.1 | 1046 ± 0.1 | 1043.3 ± 0.1 | 1040.4 ± 0.1 | 4.179 ± 0.025 | 3.464 ± 0.021 | 2.921 ± 0.018
m1 = 8.726 | 1056.3 ± 0.1 | 1053.3 ± 0.1 | 1050.2 ± 0.1 | 1047 ± 0.1 | 5.242 ± 0.031 | 4.27 ± 0.026 | 3.535 ± 0.021
m1 = 11.02 | 1063.4 ± 0.1 | 1060.1 ± 0.1 | 1056.8 ± 0.1 | 1053.4 ± 0.1 | 6.533 ± 0.037 | 5.262 ± 0.032 | 4.342 ± 0.026
m1 = 15.65 | 1072.5 ± 0.2 | 1068.9 ± 0.1 | 1065.3 ± 0.1 | 1061.6 ± 0.1 | 9.3 ± 0.053 | 7.377 ± 0.043 | 5.955 ± 0.036
m1 = 23.15 | 1079.6 ± 0.2 | 1075.7 ± 0.2 | 1071.9 ± 0.2 | – | 14.49 ± 0.082 | 11.22 ± 0.065 | 8.8 ± 0.052

From the NIST ThermoML archive (doi:10.1021/je900444h)
